Results published in patent publication US20090253651A1, “DRUG DELIVERY SYSTEM BASED ON REGIOSELECTIVELY AMIDATED HYALURONIC ACID” (EURAND PHARMACEUTICALS LTD., priority 2006, published 2009).
pIC50: −log10 of the molar value.

How the values were obtained:
Format in all cases: cell-based
[1] = test system: HT29 (colon rectal carcinoma); test: Antiproliferative activity, MTT test, HT29; details: Homo sapiens, HT-29; HT29 cells, 5 days treatment, MTT on day 6; read-out: IC50, concentration necessary to reduce the cell growth to 50% of the growth of the control
Description: (§1) Antiproliferative activity of the DDS was determined on three lines of carcinoma (HT29: colon rectal carcinoma, H460: lung carcinoma, H460M2: lung metastatic carcinoma which are CPT sensitive. Cells were incubated in 96-well plates for 5 days in complete RPMI1640 Medium (Sigma Chemical Co.) supplemented with 10% FBS (Hyclone Europe), 2 mM L-glutamine (Hyclone Europe), and 100 U/ml penicillin G and 100 ug/ml streptomycin (Sigma Chemical Co.) at […], and in controlled atmosphere (5% CO2), with irinotecan and DDSs of examples 38, 39, 41; the DDS were tested at doses equimolar with those of the reference, in the range 3-30 nM and 0.1-30 μM.
(§2) Cytotoxicity was determined on day 6 (after 5 days treatments) by the MTT test, by measuring cell viability as the cell metabolic capacity to transform the tetrazolium salt of MTT in the blue formazan, by mitochondrial dehydrogenases; the blue colour is read at 570 nm with a spectrophotometer. The following DDSs were tested.

[2] = test system: H460 (lung carcinoma); test: Antiproliferative activity, MTT test, H460; details: Homo sapiens, NCI-H460; H460 cells, 5 days treatment, MTT on day 6; read-out: IC50, concentration necessary to reduce the cell growth to 50% of the growth of the control
Description: as §1, §2

[3] = test system: H460-M2 (lung metastatic carcinoma); test: Antiproliferative activity, MTT test, H460-M2; details: H460-M2 cells, 5 days treatment, MTT on day 6; read-out: IC50, concentration necessary to reduce the cell growth to 50% of the growth of the control
Description: as §1, §2

pIC50 [1]: 6.60
pIC50 [2]: 6.36
pIC50 [3]: 6.34
SMILES: CCc1c2c(nc3ccc(OC(=O)N4CCC(N5CCCCC5)CC4)cc13)-c1cc3c(c(=O)n1C2)COC(=O)[C@]3(O)CC [Irinotecan, irinotecan]
